PubChem BioAssay AID328 (DTP/NCI, 2004)
Several values for one entry are separate records, joined by “and”; a condition that tells them apart may be missing. Equal entries are not always repeated. Toxic doses and inconclusive results are not listed. Residues, ends and D or L forms follow the SMILES beside them. *: point of attachment. Bn = c1ccc(C*)cc1; For = O=C*

Test system: BDF1 mice, P388 leukemia ip, median survival T/C
Experiment: NCI In Vivo Anticancer Drug Screen. Data for tumor model P388 Leukemia (intraperitoneal) in B6D2F1 (BDF1) mice
Conditions: endpoint: median survival time, higher = longer survival
In short: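 Compound-treated tumour-bearing mice were compared with vehicle-treated controls. Survival was recorded, and the value is the treated-group measurement divided by the control-group measurement (T/C).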

[1] = dose: 50.0 mg/kg/injection, schedule: Q01DX009 (ip), vehicle: saline with Tween-80
[2] = dose: 100.0 mg/kg/injection, schedule: Q01DX009 (ip), vehicle: saline with Tween-80
[3] = dose: 100.0 mg/kg/injection, schedule: Q04DX003 (ip), vehicle: saline with Tween-80
[4] = dose: 200.0 mg/kg/injection, schedule: Q01DX009 (ip), vehicle: saline with Tween-80
[5] = dose: 200.0 mg/kg/injection, schedule: Q04DX003 (ip), vehicle: saline with Tween-80
[6] = dose: 400.0 mg/kg/injection, schedule: Q01DX009 (ip), vehicle: saline with Tween-80
[7] = dose: 400.0 mg/kg/injection, schedule: Q04DX003 (ip), vehicle: saline with Tween-80
[8] = dose: 30.0 mg/kg/injection, schedule: Q01DX009 (ip), vehicle: Klucel (hydroxypropylcellulose) (HPC)
[9] = dose: 45.0 mg/kg/injection, schedule: Q01DX009 (ip), vehicle: Klucel (hydroxypropylcellulose) (HPC)
[10] = dose: 100.0 mg/kg/injection, schedule: Q04DX003 (ip), vehicle: saline sonified
[11] = dose: 200.0 mg/kg/injection, schedule: Q04DX003 (ip), vehicle: saline sonified
[12] = dose: 100.0 mg/kg/injection, schedule: Q01DX001 (ip), vehicle: saline
[13] = dose: 200.0 mg/kg/injection, schedule: Q01DX001 (ip), vehicle: saline
[14] = dose: 132.0 mg/kg/injection, schedule: Q04DX003 (ip), vehicle: saline with Tween-80
[15] = dose: 100.0 mg/kg/injection, schedule: Q04DX003 (ip), vehicle: saline

O=C(CN1CCCCC1)c1ccc2c(c1)Cc1cc(C(=O)CN3CCCCC3)ccc1O2
T/C [1]: 98 % of control | T/C [2]: 90 % of control

CCCCCCCCCC(=O)NN
T/C (dose: 50.0 mg/kg/injection, schedule: Q01DX001 (ip), vehicle: saline sonified): 95 % of control | T/C (dose: 100.0 mg/kg/injection, schedule: Q01DX001 (ip), vehicle: saline sonified): 104 % of control | T/C (dose: 200.0 mg/kg/injection, schedule: Q01DX001 (ip), vehicle: saline sonified): 104 % of control

CC(C)CC(NC(=O)C(Cc1ccc(OCc2ccccc2)cc1)NC=O)C(=O)O (configuration not stated) (For-Tyr(Bn)-Leu-OH; configuration not given here)
T/C [1]: 110 % of control | T/C [2]: 95 % of control and 100 % of control (2×) | T/C (dose: 100.0 mg/kg/injection, schedule: Q01DX009 (ip), vehicle: sodium bicarbonate): 90 % of control | T/C [3]: 105 % of control | T/C [4]: 86 % of control and 95 % of control and 110 % of control | T/C (dose: 200.0 mg/kg/injection, schedule: Q01DX009 (ip), vehicle: sodium bicarbonate): 105 % of control | T/C [5]: 105 % of control | T/C [6]: 90 % of control | T/C [7]: 110 % of control

CC(=O)OC1C(OCc2ccccc2)OC(COCc2ccccc2)C(OC2OC(COCc3ccccc3)C(OCc3ccccc3)C(OCc3ccccc3)C2OCc2ccccc2)C1OCc1ccccc1 (configuration not stated)
T/C (dose: 5.31 mg/kg/injection, schedule: Q01DX009 (ip), vehicle: Klucel (hydroxypropylcellulose) (HPC)): 100 % of control and 104 % of control | T/C (dose: 10.62 mg/kg/injection, schedule: Q01DX009 (ip), vehicle: Klucel (hydroxypropylcellulose) (HPC)): 100 % of control | T/C (dose: 21.25 mg/kg/injection, schedule: Q01DX009 (ip), vehicle: Klucel (hydroxypropylcellulose) (HPC)): 87 % of control and 100 % of control

BrCCN(CCBr)c1ccc2c3c(cccc13)-c1ccccc1-2
T/C (dose: 0.13 mg/kg/injection, schedule: Q01DX009 (ip), vehicle: saline): 107 % of control | T/C (dose: 0.25 mg/kg/injection, schedule: Q01DX009 (ip), vehicle: saline): 92 % of control | T/C (dose: 0.5 mg/kg/injection, schedule: Q01DX009 (ip), vehicle: saline): 111 % of control | T/C (dose: 0.68 mg/kg/injection, schedule: Q01DX009 (ip), vehicle: Klucel (hydroxypropylcellulose) (HPC)): 107 % of control | T/C (dose: 1.0 mg/kg/injection, schedule: Q01DX009 (ip), vehicle: Klucel (hydroxypropylcellulose) (HPC)): 111 % of control | T/C (dose: 1.0 mg/kg/injection, schedule: Q01DX009 (ip), vehicle: saline): 111 % of control | T/C (dose: 3.12 mg/kg/injection, schedule: Q01DX009 (ip), vehicle: Klucel (hydroxypropylcellulose) (HPC)): 170 % of control | T/C (dose: 21.0 mg/kg/injection, schedule: Q01DX009 (ip), vehicle: Klucel (hydroxypropylcellulose) (HPC)): 173 % of control | T/C [8]: 115 % of control | T/C [9]: 220 % of control | T/C (dose: 70.0 mg/kg/injection, schedule: Q01DX009 (ip), vehicle: Klucel (hydroxypropylcellulose) (HPC)): 195 % of control | T/C (dose: 176.0 mg/kg/injection, schedule: Q04DX003 (ip), vehicle: saline with Tween-80): 104 % of control | T/C [7]: 86 % of control

CC(C)CCCCCCCCOC(=O)c1ccccc1C(=O)OCCCCCCCCC(C)C
T/C [3]: 109 % of control | T/C [5]: 109 % of control | T/C [7]: 104 % of control

CN(C)CC(Cl)CCl (configuration not stated)
T/C (dose: 50.0 mg/kg/injection, schedule: Q01DX009 (ip), vehicle: saline): 103 % of control and 118 % of control | T/C (dose: 178.0 mg/kg/injection, schedule: Q01DX009 (ip), vehicle: saline): 178 % of control | T/C (dose: 200.0 mg/kg/injection, schedule: Q01DX009 (ip), vehicle: saline): 118 % of control and 168 % of control and 209 % of control | T/C (dose: 266.0 mg/kg/injection, schedule: Q01DX009 (ip), vehicle: saline): 190 % of control | T/C (dose: 400.0 mg/kg/injection, schedule: Q01DX009 (ip), vehicle: saline): 226 % of control and 200 % of control

O=C(Nc1ccc(C(=O)Nc2ccc(C3=NCCCN3)cc2)cc1)Nc1ccc(C2=NCCCN2)cc1
T/C (dose: 16.5 mg/kg/injection, schedule: Q04DX003 (ip), vehicle: saline with Tween-80): 122 % of control and 204 % of control | T/C (dose: 25.0 mg/kg/injection, schedule: Q04DX003 (ip), vehicle: saline with Tween-80): 245 % of control and 163 % of control | T/C (dose: 37.5 mg/kg/injection, schedule: Q04DX003 (ip), vehicle: saline with Tween-80): 159 % of control and 186 % of control

N#CCc1ccc2c(c1)[nH]c1ccccc12
T/C (dose: 50.0 mg/kg/injection, schedule: Q04DX003 (ip), vehicle: saline sonified): 104 % of control | T/C [10]: 109 % of control | T/C [11]: 104 % of control

CCOC(=O)C(=O)C[n+]1cc2ccccc2cc1/C=N/O
T/C (dose: 50.0 mg/kg/injection, schedule: Q01DX001 (ip), vehicle: saline): 100 % of control | T/C [12]: 100 % of control | T/C [13]: 100 % of control

CCOC(=O)CCC(NC(=O)N(CCCl)CCCl)C(=O)OCC (configuration not stated)
T/C [14]: 175 % of control | T/C [5]: 204 % of control | T/C (dose: 300.0 mg/kg/injection, schedule: Q04DX003 (ip), vehicle: saline with Tween-80): 183 % of control

O=NN(CCCl)C(=O)Nc1ccc2[nH]c3ccccc3c2c1
T/C [8]: 183 % of control | T/C [9]: 175 % of control | T/C (dose: 65.0 mg/kg/injection, schedule: Q01DX009 (ip), vehicle: Klucel (hydroxypropylcellulose) (HPC)): 183 % of control and 192 % of control | T/C (dose: 130.0 mg/kg/injection, schedule: Q01DX009 (ip), vehicle: Klucel (hydroxypropylcellulose) (HPC)): 208 % of control

O=C(NC1CCOC1=O)OCc1ccccc1 (configuration not stated)
T/C [1]: 100 % of control | T/C [2]: 100 % of control | T/C [4]: 100 % of control | T/C [6]: 98 % of control

Cc1ccc2oc(=O)c(-c3cc4oc(=O)sc4cc3O)c(O)c2c1
T/C (dose: 100.0 mg/kg/injection, schedule: Q01DX001 (ip), vehicle: Klucel (hydroxypropylcellulose) (HPC)): 100 % of control | T/C (dose: 200.0 mg/kg/injection, schedule: Q01DX001 (ip), vehicle: Klucel (hydroxypropylcellulose) (HPC)): 100 % of control | T/C (dose: 400.0 mg/kg/injection, schedule: Q01DX001 (ip), vehicle: Klucel (hydroxypropylcellulose) (HPC)): 106 % of control

NC(=O)c1cc(=S)[nH]c2nc(Cl)nc(N)c12
T/C (dose: 100.0 mg/kg/injection, schedule: Q04DX002 (ip), vehicle: saline with Tween-80): 120 % of control

COC(=O)c1ccc(OCCOc2ccc(C(C)(C)CC(C)(C)C)cc2)c([N+](=O)[O-])c1
T/C [10]: 100 % of control | T/C [11]: 86 % of control | T/C (dose: 400.0 mg/kg/injection, schedule: Q04DX003 (ip), vehicle: saline sonified): 86 % of control

CSc1nc(Cl)c(Br)c(Sc2nc(N)nc3nc[nH]c23)n1
T/C [14]: 120 % of control

O=C(CI)N1c2ccccc2Sc2ccc3ccccc3c21
T/C [1]: 91 % of control | T/C [2]: 96 % of control | T/C [4]: 116 % of control

Cc1ccc(S(=O)(=O)/C=C(/I)c2ccccc2)cc1
T/C (dose: 6.25 mg/kg/injection, schedule: Q01DX009 (ip), vehicle: saline with Tween-80): 124 % of control | T/C (dose: 12.5 mg/kg/injection, schedule: Q01DX009 (ip), vehicle: saline with Tween-80): 106 % of control | T/C (dose: 25.0 mg/kg/injection, schedule: Q01DX009 (ip), vehicle: saline with Tween-80): 106 % of control | T/C [1]: 92 % of control and 109 % of control | T/C [2]: 109 % of control | T/C [3]: 114 % of control | T/C [4]: 106 % of control | T/C [5]: 106 % of control | T/C [6]: 100 % of control | T/C [7]: 97 % of control

NCCCC(=O)O
T/C [12]: 100 % of control | T/C [15]: 109 % of control | T/C [13]: 100 % of control | T/C (dose: 200.0 mg/kg/injection, schedule: Q04DX003 (ip), vehicle: saline): 86 % of control | T/C (dose: 400.0 mg/kg/injection, schedule: Q01DX001 (ip), vehicle: saline): 90 % of control | T/C (dose: 400.0 mg/kg/injection, schedule: Q04DX003 (ip), vehicle: saline): 118 % of control

Cc1nc2ccccc2n1C[c-]1[c-][c-][c-][c-]1.[Fe].[c-]1[c-][c-][cH-][c-]1
T/C [1]: 91 % of control | T/C [2]: 113 % of control | T/C [4]: 105 % of control

COCCOP(=O)(N1CC1)N1CC1
T/C (dose: 33.0 mg/kg/injection, schedule: Q04DX003 (ip), vehicle: saline): 190 % of control | T/C (dose: 50.0 mg/kg/injection, schedule: Q04DX003 (ip), vehicle: saline): 236 % of control | T/C (dose: 75.0 mg/kg/injection, schedule: Q04DX003 (ip), vehicle: saline): 272 % of control | T/C [15]: 118 % of control
